Test results published in US20210322452A1, “COGNITIVE FUNCTION IMPROVING COMPOSITION COMPRISING NOVEL POST FERMENTED TEA-DERIVED KAEMPFEROL-BASED COMPOUND” (AMOREPACIFIC CORPORATION, priority 2016, published 2021).

Legend:
[1] = test system: DNMT1 (DNA (cytosine-5)-methyltransferase 1); test: Expression level of intracellular DNMT1 in SH-SY5Y cells (real-time quantitative PCR); assay type: cell-based; details: 24 hours, mRNA vs GAPDH, untreated = 100
Experimental: (§1) Specifically, SH-SY5Y (neuroblastoma, Korean Cell Line Bank) cell line was seeded in a 6-well plate (FALCON) at 2×10^6 cells per well, cultured in an incubator containing 5% CO2 at 37° C. for 24 hours, then treated with 10 μg/ml of GCG, 10 μM of EGCG, 10 μg/ml of the existing green tea extract (GTE), 10 μg/ml of the novel substance 33, and 1 μM of 5-Aza-2′deoxycytidine (5-Aza, Sigma-aldrich) as a positive control group, and further cultured for 24 hours. Thereafter, the medium was entirely removed therefrom, and RNA was extracted therefrom using an RNA extraction kit (RNeasy mini kit, Quiagen). The extracted mRNA was quantitated using an ultraviolet detector (TECAN), and then 1 μg of mRNA was synthesized into a complementary DNA using a kit (SuperScript VILO cDNA Synthesis Kit, Thermofisher Scientific). Approximately 1 μg of the complementary DNA was taken and subjected to the real-time quantitative chain reaction using Taqman probe (Life technology) and Quantitect Probe PCR Kit (Quiagen). The expression levels of BDNF and DNMT1 were thus confirmed. At this time, the housekeeping gene, GAPDH, was used as the reference mRNA.

[2] = test system: BDNF (brain-derived neurotrophic factor); test: Expression level of intracellular BDNF in SH-SY5Y cells (real-time quantitative PCR); assay type: cell-based; details: 24 hours, mRNA vs GAPDH, untreated = 100
Experimental: as §1

beta amyloid (Aβ1-42) = target: T1, beta amyloid (Aβ1-42) (Homo sapiens, UniProt P05067); test: Inhibition of beta amyloid aggregation, fluorescence analysis (ThioflavinT assay); assay type: biochemical; details: compound 10 μM; for Increased RFU (amount of aggregated beta amyloid): Aβ1-42 0.1 mg/ml, thioflavinT, 37° C., 150 minutes; for Increased RFU (% of Pos. Cont.): Pos. Cont. (only beta amyloid, no compound) = 100%; for inhibition at 10 µM: aggregation in positive control group taken as 100%, read-out: inhibition of beta amyloid aggregation compared with the positive control group
T1 construct: beta amyloid (Aβ1-42, AnaSpec Inc., USA) was obtained; purchased AnaSpec Inc., USA
Experimental: The effect of kaempferol3-O-[2-O″-(E)-p-coumaroyl][beta-D-glucopyranosyl-(1→3)-O-alpha-L-rhamnopyranosyl-(1→6)-O-beta-D-glucopyranoside] on inhibition of beta amyloid aggregation was confirmed by the fluorescence analysis (ThioflavinT assay).
Specifically, beta amyloid (Aβ1-42, AnaSpec Inc., USA) was obtained and used at a concentration of 0.1 mg/ml and stored at −80° C. before use. Morin (20 μM), phenol red (20 μM), and kaempferol3-O-[2-O″-(E)-p-coumaroyl][beta-D-glucopyranosyl-(1→3)-O-alpha-L-rhamnopyranosyl-(1→6)-O-beta-D-glucopyranoside] (1 mg/ml) were respectively diluted with DMSO so as to be adjusted to the concentrations.
In order to specify the degree of inhibition of Aβ1-42 aggregation, each of the compounds prepared at the above concentrations was diluted with 50 μL of 0.01 M sodium phosphate buffer solution to have a concentration of 10 μM, then 40 μL of 0.1 mg/ml of Aβ1-42 was added thereto, and then 10 μl of 2 mM thioflavinT was added thereto, and fluorescence was measured using a fluorescence spectrometer (RF-5300PC, SHIMADZU CORPORATION, Japan) at 37° C. for 150 minutes at intervals of 5 minutes.

skin = test: Human repeated insult patch tests (HRIPT), cumulative skin irritation; assay type: in vivo; set-up: key to skin reactivity (ICDRG criteria): −: Negative (no reaction); ±: Suspicious or mild erythema and the like; +: Weak reaction (not accompanied by small vesicula), erythema, papule; ++: Moderate reaction (with small vesicula), erythema, papule, vesicula; +++: Strong reaction, bulla reaction; details: for Number of subjects showed ±, +, or ++ reactivity, 1st time: 1st patch; for Number of subjects showed ±, +, or ++ reactivity, 1st time / Number of subjects showed ±, +, or ++ reactivity, 2nd time / Number of subjects showed ±, +, or ++ reactivity, 3rd time / Number of subjects showed ±, +, or ++ reactivity, 4th time / Number of subjects showed ±, +, or ++ reactivity, 5th time / Number of subjects showed ±, +, or ++ reactivity, 6th time / Number of subjects showed ±, +, or ++ reactivity, 7 th time / Number of subjects showed ±, +, or ++ reactivity, 8 th time / Number of subjects showed ±, +, or ++ reactivity, 9th time: three lines per group (±, +, ++; lines not labelled); for Number of subjects showed ±, +, or ++ reactivity, 2nd time: 2nd patch; for Number of subjects showed ±, +, or ++ reactivity, 3rd time: 3rd patch; for Number of subjects showed ±, +, or ++ reactivity, 4th time: 4th patch; for Number of subjects showed ±, +, or ++ reactivity, 5th time: 5th patch; for Number of subjects showed ±, +, or ++ reactivity, 6th time: 6th patch; for Number of subjects showed ±, +, or ++ reactivity, 7 th time: 7th patch; for Number of subjects showed ±, +, or ++ reactivity, 8 th time: 8th patch; for Number of subjects showed ±, +, or ++ reactivity, 9th time: 9th patch; for Average reactivity: safe when less than 3
Experimental: Human repeated insult patch tests (HRIPT) were conducted to determine the cumulative skin irritation by kaempferol3-O-[2-O″-(E)-p-coumaroyl][beta-D-glucopyranosyl-(1→3)-O-alpha-L-rhamnopyranosyl-(1→6)-O-beta-D-glucopyranoside] and to calculate the concentration range in which kaempferol3-O-[2-O″-(E)-p-coumaroyl][beta-D-glucopyranosyl-(1→3)-O-alpha-L-rhamnopyranosyl-(1→6)-O-beta-D-glucopyranoside] can be used on the skin.
Specifically, 15 healthy adult subjects were randomly selected, the test compositions (compositions for skin containing an emulsifier, a stabilizer, purified water, and the like in addition to the compound) containing the compound at 0.5 wt %, 1 wt %, and 3 wt % were dropped by 20 μl per chamber (IQ chamber, Epitest Ltd, Finland), and the patch was applied to the right side of the upper back of the subject and then replaced with new one after 24 hours. The skin reaction was examined before and after the patch test while the patch test was conducted three times a week and thus nine times for three weeks in total in this manner, the skin reaction was observed until the 48th hour after removal of the final patch, and the average reactivity was determined.
The skin reaction was judged according to the criteria of the International Contact Dermatitis Research Group (ICDRG). In the above table, “Novel substance 33” denotes kaempferol3-O-[2-O″-(E)-p-coumaroyl][beta-D-glucopyranosyl-(1→3)-O-alpha-L-rhamnopyranosyl-(1→6)-O-beta-D-glucopyranoside].

T1 sequence (P05067 672-713 limits assumed): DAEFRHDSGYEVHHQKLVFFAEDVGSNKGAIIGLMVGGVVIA

For `Nc1ncn([C@H]2C[C@H](O)[C@@H](CO)O2)c(=O)n1` [5-Aza-2′deoxycytidine, reference compound], the “Relative expression level of DNMT1” value ([1]; 1 μM) was 65% and the “Relative expression level of BDNF” value ([2]; 1 μM) was 149%.
In the case of `O=c1c(O)c(-c2ccc(O)cc2O)oc2cc(O)cc(O)c12` [Morin], the “Increased RFU (amount of aggregated beta amyloid)” value (beta amyloid (Aβ1-42)) is reported as 11471 RFU, the “Increased RFU (% of Pos. Cont.)” value (beta amyloid (Aβ1-42)) is reported as 78.6% and the inhibition at 10 µM (beta amyloid (Aβ1-42)) is reported as 21.4%.
In the case of `CC1OC(OCC2OC(Oc3c(-c4ccc(O)cc4)oc4cc(O)cc(O)c4c3=O)C(OC(=O)/C=C/c3ccc(O)cc3)C(O)C2O)C(O)C(OC2OC(CO)C(O)C(O)C2O)C1O` [Novel substance 33, kaempferol3-O-[2-O″-(E)-p-coumaroyl][beta-D-glucopyranosyl-(1→3)-O-alpha-L-rhamnopyranosyl-(1→6)-O-beta-D-glucopyranoside]], the “Relative expression level of DNMT1” value ([1]; 10 μg/ml) is reported as 78%, the “Number of subjects showed ±, +, or ++ reactivity, 1st time” value (shortened to “Number of subjects showed ± … 1st time”) (skin; 0.5 wt %) is reported as 0 persons and the “Number of subjects showed ±, +, or ++ reactivity, 2nd time” value (“Number of subjects showed ± … 2nd time” below) (skin; 0.5 wt %) is reported as 0 persons. For the same molecule, the “Number of subjects showed ±, +, or ++ reactivity, 3rd time” value (from here on “Number of subjects showed ± … 3rd time”) (skin; 0.5 wt %) was 0 persons, the “Number of subjects showed ±, +, or ++ reactivity, 4th time” value (shortened to “Number of subjects showed ± … 4th time”) (skin; 0.5 wt %) was 0 persons and the “Number of subjects showed ±, +, or ++ reactivity, 5th time” value (“Number of subjects showed ± … 5th time” below) (skin; 0.5 wt %) was 0 persons. The “Number of subjects showed ±, +, or ++ reactivity, 6th time” value (from here on “Number of subjects showed ± … 6th time”) (skin; 0.5 wt %) was 0 persons, the “Number of subjects showed ±, +, or ++ reactivity, 7 th time” value (shortened to “Number of subjects showed ± … 7 th time”) (skin; 0.5 wt %) was 0 persons and the “Number of subjects showed ±, +, or ++ reactivity, 8 th time” value (“Number of subjects showed ± … 8 th time” for short) (skin; 0.5 wt %) was 0 persons. The “Number of subjects showed ±, +, or ++ reactivity, 9th time” value (“Number of subjects showed ± … 9th time” below) (skin; 0.5 wt %) was 0 persons, the Average reactivity (skin; 0.5 wt %) was 0 and the “Number of subjects showed ± … 1st time” value (skin; 1 wt %) was 0 persons. The “Number of subjects showed ± … 2nd time” value (skin; 1 wt %) was 0 persons, the “Number of subjects showed ± … 3rd time” value (skin; 1 wt %) was 0 persons and the “Number of subjects showed ± … 4th time” value (skin; 1 wt %) was 0 persons. For the same molecule, the “Number of subjects showed ± … 5th time” value (skin; 1 wt %) was 0 persons, the “Number of subjects showed ± … 6th time” value (skin; 1 wt %) was 0 persons and the “Number of subjects showed ± … 7 th time” value (skin; 1 wt %) was 0 persons. The “Number of subjects showed ± … 8 th time” value (skin; 1 wt %) was 0 persons, the “Number of subjects showed ± … 9th time” value (skin; 1 wt %) was 0 persons and the Average reactivity (skin; 1 wt %) was 0. The “Number of subjects showed ± … 1st time” value (skin; 3 wt %) was 0 persons, the “Number of subjects showed ± … 2nd time” value (skin; 3 wt %) was 0 persons and the “Number of subjects showed ± … 3rd time” value (skin; 3 wt %) was 0 persons. For the same molecule, the “Number of subjects showed ± … 4th time” value (skin; 3 wt %) was 0 persons, the “Number of subjects showed ± … 5th time” value (skin; 3 wt %) was 0 persons and the “Number of subjects showed ± … 6th time” value (skin; 3 wt %) was 0 persons. The “Number of subjects showed ± … 7 th time” value (skin; 3 wt %) was 0 persons, the “Number of subjects showed ± … 8 th time” value (skin; 3 wt %) was 0 persons and the “Number of subjects showed ± … 9th time” value (skin; 3 wt %) was 0 persons. The Average reactivity (skin; 3 wt %) was 0, the “skin reactivity (ICDRG criteria)” value (skin; all the content ranges (0.5, 1, 3 wt %), 15 subjects, 9 patches in 3 weeks) was “−” and the “Relative expression level of BDNF” value ([2]; 10 μg/ml) was 128%. The “Increased RFU (amount of aggregated beta amyloid)” value (beta amyloid (Aβ1-42)) was 11235 RFU, the “Increased RFU (% of Pos. Cont.)” value (beta amyloid (Aβ1-42)) was 77.0% and the inhibition at 10 µM (beta amyloid (Aβ1-42)) was 23%.
In the case of `O=S1(=O)OC(c2ccc(O)cc2)(c2ccc(O)cc2)c2ccccc21` [Phenol Red], the “Increased RFU (% of Pos. Cont.)” value (beta amyloid (Aβ1-42)) is reported as 93.6% and the inhibition at 10 µM (beta amyloid (Aβ1-42)) is reported as 6.4%.
